# In patent US20260272936A1, “TREATMENT OF CANCER WITH A PARG INHIBITOR” (858 Therapeutics, Inc., priority 2023, published 2026):
# Where two headings read alike, the source gives them in different places.
# Assays:
# OCM.109 cells = test: 6-day proliferation of patient-derived ovarian cancer model, nuclei count; format: cell-based, human
# Protocol: (§1) Ex vivo ovarian cancer models (OCMs) were established from the ascites of high-grade serous ovarian cancer patients (Coulson-Gilmer, 2021, J Exp Clin Cancer Res) and grown in vitro as 2D cell lines. OCMs were cultured in an incubator at 37° C. in 5% CO2 in OCMI media.
# (§2) Compound 1 IC50 values for inhibition of cell proliferation were determined by imaging and counting the number of nuclei after compound treatment. Cells were harvested with trypsin (Thermo Fisher Scientific, Waltham, MA, USA, Cat #25200-056) and plated in Sarstedt 96-well Cell+ Tissue Culture Plates (Thermo Fisher Scientific, Waltham, MA, USA, Cat #NC9624222) at 5,000 cells/well (OCM.109) or 10,000 cells/well (OCM.246) in 100 μL of OCMI medium and incubated overnight at 37° C., 5% CO2. The following day, 1000× Compound 1 and niraparib concentration curves were prepared by serial dilution in 100% DMSO. The 1000× concentration was diluted 1:200 into growth media to generate a 5× concentration curve in 0.5% DMSO/growth medium before addition of 25 μL of the 5× compound to the wells. Control wells received 25 μL of 0.5% DMSO in media or 10 μM of Compound 1. The plates were mixed and incubated for 6 days at 37° C., 5% CO2 before fixing and staining the cells for nuclei counting as described in Example 3.
# (§3) Four fields in each well were acquired using the DAPI channel at 10× magnification. Using high-content software (Cell Reporter Xpress), the nuclei were detected and counted. The percent proliferation after treatment was determined by normalizing the number of nuclei in the treated wells to the DMSO and 10 μM Compound 1 control wells. Concentration response curves and IC50 values for percent inhibition of proliferation were generated by non-linear regression analysis using a least squares fit of the log (inhibitor) vs. response-Variable slope (four parameters) curve using GraphPad Prism 10 software (GraphPad Software, Boston, MA, USA).
# OCM.246 cells = test: as above; format: cell-based, human
# Protocol: as §1, §2, §3
# OVCAR3 cells = test: 6-day growth assay, Compound 1 in combination with camonsertib; format: cell-based; conditions: Homo sapiens, OVCAR-3, 144 h, read-out: Compound 1 IC50, 6-Day Nuclei Count
# [1] = system: γH2AX in HCC1428 tumor tissue; test: γH2AX immunohistochemistry of HCC1428 xenograft tumor tissue (Study 2); format: in vivo, BALB/c nude mice; conditions: vehicle 2.4%
# Protocol: The mice in the 50 mg/kg BID group were dosed every day whereas the mice in the […] were dosed for the first 5 days of each 7-day cycle, such that the total weekly dose was the same between these two groups. At the end of the study, tumor tissue was collected for the vehicle, 50 mg/kg BID, and 30, 50 and 100 mg/kg QD dose groups and formalin-fixed and paraffin embedded (FFPE) for γH2AX immunohistochemistry. γH2AX expression in FFPE tumor tissue was evaluated by staining and was performed using immunohistochemistry and validated antibody conditions at Histowiz (Long Island City, NY, USA). The γH2AX IHC images were then quantified in-house using QuPath software. The total number of nuclei objects per tumor section based on hematoxylin counter-staining (blue) were segmented using a Stardist algorithm and the number of γH2AX positive DAB (3,3′ Diaminobenzidine) stained cells (brown) quantified using object classification with a pre-trained random forest model based on DAB staining parameters including intensity and standard deviation.
# % γH2AX positive=(#γH2AX positive nuclei/#total nuclei)*100
# Statistical analysis of the γH2AX staining was conducted using Ordinary one-way ANOVA with Dunnett's multiple comparisons test and differences considered significant at a calculated probability p≤0.05.
# [2] = system: T025OV ovarian cancer patient-derived xenograft; test: T025OV ovarian cancer PDX model; format: in vivo, NOG mice; conditions: 75 mg/kg BID, 50 days
# Protocol: tissue from a treatment naïve patient with Stage 1 serous ovarian cancer was obtained from Discovery Life Sciences (Huntsville, AL, Case ID #200000835) and was expanded by subcutaneous implantation into female NOG mice. For tumor development, mice were inoculated subcutaneously on the right flank with isolated […] cells at 1×10^6 viable cells per mouse in 0.2 mL of DPBS mixed with Matrigel® Growth Factor Reduced Basement Membrane Matrix (1:1 ratio) (Corning®, Tewksbury, MA, USA, Cat #356237). Groups were established and drug treatment initiated when the mean tumor volume reached approximately 140-150 mm^3. […] For all studies, tumor volumes and body weights were measured twice weekly. […] Statistical analysis of end-of-study mean tumor volumes for the […] model was performed using an unpaired t-test with Welch's correction.
# [3] = Homo sapiens, 144 h, read-out: IC50 inhibition of proliferation
structure (smiles),measurement,setting,value
"[2H]C([2H])(c1cnn(C)c1)N1C(=O)c2cc(S(=O)(=O)NC3(C)CC3)ccc2N2C1=NC[C@H]2C [Compound 1, (R)-1-methyl-4-((1-methyl-1H-pyrazol-4-yl)methyl-d2)-N-(1-methylcyclopropyl)-5-oxo-1,2,4,5-tetrahydroimidazo[1,2-a]quinazoline-7-sulfonamide]",IC50,OCM.109 cells; [3],51 nM
same,potency better than niraparib,OCM.109 cells; OCM.109,> 80 fold
same,IC50,OCM.246 cells; [3],162 nM
same,potency better than niraparib,OCM.246 cells; OCM.246,> 20 fold
same,IC50,OVCAR3 cells; camonsertib 0.032 nM,39 µM
same,IC50,OVCAR3 cells; camonsertib 0.32 nM,44 µM
same,IC50,OVCAR3 cells; camonsertib 3.2 nM,29 µM
same,IC50,OVCAR3 cells; camonsertib 10 nM,12 µM
same,IC50,OVCAR3 cells; camonsertib 32 nM,2 µM
same,IC50,OVCAR3 cells; camonsertib 100 nM,0.27 µM
same,% γH2AX positive cells in tumor tissue,[1]; 30 mg/kg QD,3.7% +/− 0.4
same,% γH2AX positive cells in tumor tissue,[1]; 50 mg/kg BID,6.8% +/− 0.4
same,% γH2AX positive cells in tumor tissue,[1]; 50 mg/kg QD,4.2% +/− 0.3
same,% γH2AX positive cells in tumor tissue,[1]; 100 mg/kg QD,5.9% +/− 0.5
same,mean decrease in body weight,[2],4.6%
